Assay results reported in patent publication US20250136586A1, “Substituted 7-(Pyrimidin-4-yl)Quinolin-4(1H)-One Compounds as Cyclin Dependent Kinase Inhibitors” (BeiGene, Ltd., priority 2022, published 2025).
pIC50: −log10 of the molar value.

How the values were obtained:
CDK4/Cyclin D1 = CDK4/Cyclin D1 (Homo sapiens (Human), UniProt P11802); assay: TR-FRET kinase inhibition assay, CDK4/Cyclin D1; type: biochemical; details: 1 mM ATP, 0.15 μM Rb (Ser780)-biotin substrate, read-out: CDK4D1 IC50
Description: Compounds disclosed herein were tested for inhibition of CDK4/Cyclin D1 or CDK6/Cyclin D3 kinase in an assay based on the time-resolved fluorescence-resonance energy transfer (TR-FRET) methodology. […] The kinase was incubated with compound for 60 minutes at room temperature and the reaction was initiated by the addition of ATP and Rb (Ser780)-biotin substrate. After reaction at room temperature for 120 minutes, an equal volume of stop/detection solution was added according to the manufacture's instruction (Cisbio Bioassays). The stop/detection solution contained Streptavidin-XL665 and Anti-pRb (Ser780) mAb-Eu Cryptate in Detection buffer (Cisbio Bioassays). […] The inhibition percentage of CDK4/Cyclin D1 or CDK6/Cyclin D3 kinase activity in presence of increasing concentrations of compounds was calculated based on the ratio of fluorescence at 665 nm to that at 620 nm. The IC50 for each compound was derived from fitting the data to the four-parameter logistic equation by Dotmatics.

CDK6/Cyclin D3 = CDK6/Cyclin D3 (Homo sapiens (Human), UniProt Q00534); assay: TR-FRET kinase inhibition assay, CDK6/Cyclin D3; type: biochemical; details: 1 mM ATP, 0.15 μM Rb (Ser780)-biotin substrate, read-out: CDK6D3 IC50
Sequence of CDK6/Cyclin D3 (Q00534 whole entry): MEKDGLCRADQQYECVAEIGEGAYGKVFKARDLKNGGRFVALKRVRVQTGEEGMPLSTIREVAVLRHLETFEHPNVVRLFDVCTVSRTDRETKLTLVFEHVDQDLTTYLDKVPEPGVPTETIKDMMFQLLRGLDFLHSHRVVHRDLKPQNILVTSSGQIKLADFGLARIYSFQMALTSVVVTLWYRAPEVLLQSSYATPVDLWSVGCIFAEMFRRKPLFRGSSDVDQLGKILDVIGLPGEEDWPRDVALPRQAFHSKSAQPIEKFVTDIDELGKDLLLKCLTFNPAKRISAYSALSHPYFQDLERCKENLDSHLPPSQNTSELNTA
Sequence of CDK6/Cyclin D3 (P30281 whole entry partner): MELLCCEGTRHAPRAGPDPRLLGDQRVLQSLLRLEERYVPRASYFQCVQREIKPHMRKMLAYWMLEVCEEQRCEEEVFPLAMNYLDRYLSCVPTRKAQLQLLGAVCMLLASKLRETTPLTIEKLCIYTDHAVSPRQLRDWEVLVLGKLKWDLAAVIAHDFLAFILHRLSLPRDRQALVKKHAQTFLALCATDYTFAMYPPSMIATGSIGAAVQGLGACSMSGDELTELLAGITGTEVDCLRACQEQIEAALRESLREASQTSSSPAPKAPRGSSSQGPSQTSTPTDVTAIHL
Description: Compounds disclosed herein were tested for inhibition of CDK4/Cyclin D1 or CDK6/Cyclin D3 kinase in an assay based on the time-resolved fluorescence-resonance energy transfer (TR-FRET) methodology. The assay was carried out in 384-well low volume black plates in a reaction mixture containing CDK4/Cyclin D1 or CDK6/Cyclin D3, 1 mM ATP, 0.15 μM Rb (Ser780)-biotin substrate and 0-10 μM compound in buffer containing 50 mM HEPES pH7.0, 0.02% NaN3, 0.01% BSA, 0.1 mM Orthovanadate, 50 mM MgCl2, 1 mM DTT and 0.005% Tween-20. The kinase was incubated with compound for 60 minutes at room temperature and the reaction was initiated by the addition of ATP and Rb (Ser780)-biotin substrate. After reaction at room temperature for 120 minutes, an equal volume of stop/detection solution was added according to the manufacture's instruction (Cisbio Bioassays). The stop/detection solution contained Streptavidin-XL665 and Anti-pRb (Ser780) mAb-Eu Cryptate in Detection buffer (Cisbio Bioassays). Plates were incubated at room temperature for 60 minutes, and the TR-FRET signals (ex337 nm, em665 nm/620 nm) were recorded on a PHERAstar FSX plate reader (BMG Labtech). The inhibition percentage of CDK4/Cyclin D1 or CDK6/Cyclin D3 kinase activity in presence of increasing concentrations of compounds was calculated based on the ratio of fluorescence at 665 nm to that at 620 nm. The IC50 for each compound was derived from fitting the data to the four-parameter logistic equation by Dotmatics.

Sequence of CDK4/Cyclin D1 (P11802 whole entry): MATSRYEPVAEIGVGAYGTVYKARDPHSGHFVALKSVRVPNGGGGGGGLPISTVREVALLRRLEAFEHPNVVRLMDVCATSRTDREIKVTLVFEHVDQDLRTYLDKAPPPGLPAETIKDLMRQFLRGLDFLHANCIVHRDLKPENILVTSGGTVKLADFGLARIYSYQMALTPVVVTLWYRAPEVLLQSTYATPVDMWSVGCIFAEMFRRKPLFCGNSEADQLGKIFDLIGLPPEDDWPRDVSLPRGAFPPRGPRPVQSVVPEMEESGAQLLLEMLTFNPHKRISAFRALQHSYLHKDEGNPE
Sequence of CDK4/Cyclin D1 (P24385 whole entry partner): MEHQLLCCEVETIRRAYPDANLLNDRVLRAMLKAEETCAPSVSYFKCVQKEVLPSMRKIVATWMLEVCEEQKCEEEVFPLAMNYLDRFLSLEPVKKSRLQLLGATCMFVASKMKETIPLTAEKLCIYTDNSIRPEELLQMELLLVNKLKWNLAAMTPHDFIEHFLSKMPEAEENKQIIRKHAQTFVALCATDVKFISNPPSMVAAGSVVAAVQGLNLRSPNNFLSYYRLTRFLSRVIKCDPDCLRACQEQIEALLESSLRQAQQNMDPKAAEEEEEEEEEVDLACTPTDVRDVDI

In the case of `CNC(=O)c1c(C)c(=O)c2ccc(-c3nc(N[C@@H]4CCOC[C@H]4O)ncc3F)cc2n1C(C)C` [Example 24, 7-(5-fluoro-2-(((3S,4R)-3-hydroxytetrahydro-2H-pyran-4-yl)amino)pyrimidin-4-yl)-1-isopropyl-N,3-dimethyl-4-oxo-1,4-dihydroquinoline-2-carboxamide], the pIC50 (CDK4/Cyclin D1) was 7.62 and the pIC50 (CDK6/Cyclin D3) was 6.36.

In the case of `CC(C)n1c(CN2CCOCC2)cc(=O)c2ccc(-c3nc(N[C@@H]4CCOC[C@H]4O)ncc3F)cc21` [Example 25, 7-(5-fluoro-2-(((3S,4R)-3-hydroxytetrahydro-2H-pyran-4-yl)amino)pyrimidin-4-yl)-1-isopropyl-2-(morpholinomethyl)quinolin-4(1H)-one], the pIC50 (CDK4/Cyclin D1) was 8.09 and the pIC50 (CDK6/Cyclin D3) was 6.86.

In the case of `CC(C)n1c(CN2CCOCC2)cc(=O)c2ccc(-c3nc(N[C@@H]4CCOC[C@H]4O)ncc3Cl)cc21` [Example 26, 7-(5-chloro-2-(((3S,4R)-3-hydroxytetrahydro-2H-pyran-4-yl)amino)pyrimidin-4-yl)-1-isopropyl-2-(morpholinomethyl)quinolin-4(1H)-one], the pIC50 (CDK4/Cyclin D1) was 7.80 and the pIC50 (CDK6/Cyclin D3) was 6.47.

In the case of `CC(C)n1c(CN2CC[C@H](F)C2)cc(=O)c2ccc(-c3nc(N[C@@H]4CCOC[C@H]4O)ncc3F)cc21` [Example 27, 7-(5-fluoro-2-(((3S,4R)-3-hydroxytetrahydro-2H-pyran-4-yl)amino)pyrimidin-4-yl)-2-(((S)-3-fluoropyrrolidin-1-yl)methyl)-1-isopropylquinolin-4(1H)-one], the pIC50 (CDK4/Cyclin D1) was 8.24 and the pIC50 (CDK6/Cyclin D3) was 6.83.

For `CC(C)n1c(CN2C3CCC2COC3)cc(=O)c2ccc(-c3nc(N[C@@H]4CCOC[C@H]4O)ncc3F)cc21` [Example 29, 2-((3-oxa-8-azabicyclo[3.2.1]octan-8-yl)methyl)-7-(5-fluoro-2-(((3S,4R)-3-hydroxytetrahydro-2H-pyran-4-yl)amino)pyrimidin-4-yl)-1-isopropylquinolin-4(1H)-one], the pIC50 (CDK4/Cyclin D1) was 7.72 and the pIC50 (CDK6/Cyclin D3) was 6.44.

In the case of `CC(C)n1c(CN2CC(O)C2)cc(=O)c2ccc(-c3nc(N[C@@H]4CCOC[C@H]4O)ncc3F)cc21` [Example 30, 7-(5-fluoro-2-(((3S,4R)-3-hydroxytetrahydro-2H-pyran-4-yl)amino)pyrimidin-4-yl)-2-((3-hydroxyazetidin-1-yl)methyl)-1-isopropylquinolin-4(1H)-one], the pIC50 (CDK4/Cyclin D1) was 7.52 and the pIC50 (CDK6/Cyclin D3) was 6.11.

`CC(C)n1c(CN2C[C@@H](O)[C@@H](F)C2)cc(=O)c2ccc(-c3nc(N[C@@H]4CCOC[C@H]4O)ncc3F)cc21` [Example 31, 7-(5-fluoro-2-(((3S,4R)-3-hydroxytetrahydro-2H-pyran-4-yl)amino)pyrimidin-4-yl)-2-(((3S,4R)-3-fluoro-4-hydroxypyrrolidin-1-yl)methyl)-1-isopropylquinolin-4(1H)-one] was tested, and the pIC50 (CDK4/Cyclin D1) was 7.89 and the pIC50 (CDK6/Cyclin D3) was 6.32.

`CC(C)n1c(CN2C[C@H](O)[C@@H](F)C2)cc(=O)c2ccc(-c3nc(N[C@@H]4CCOC[C@H]4O)ncc3F)cc21` [Example 32, 7-(5-fluoro-2-(((3S,4R)-3-hydroxytetrahydro-2H-pyran-4-yl)amino)pyrimidin-4-yl)-2-(((3S,4S)-3-fluoro-4-hydroxypyrrolidin-1-yl)methyl)-1-isopropylquinolin-4(1H)-one] was tested, and the pIC50 (CDK4/Cyclin D1) was 8.00 and the pIC50 (CDK6/Cyclin D3) was 6.70.

`CC(C)n1c(CN2C[C@H]3C[C@@H]2CO3)cc(=O)c2ccc(-c3nc(N[C@@H]4CCOC[C@H]4O)ncc3F)cc21` [Example 33, 2-(((1R,4R)-2-oxa-5-azabicyclo[2.2.1]heptan-5-yl)methyl)-7-(5-fluoro-2-(((3S,4R)-3-hydroxytetrahydro-2H-pyran-4-yl)amino)pyrimidin-4-yl)-1-isopropylquinolin-4(1H)-one] gave a pIC50 (CDK4/Cyclin D1) of 7.92 and a pIC50 (CDK6/Cyclin D3) of 6.49.

In the case of `CC(C)n1c(CN2C[C@@H]3C[C@H]2CO3)cc(=O)c2ccc(-c3nc(N[C@@H]4CCOC[C@H]4O)ncc3F)cc21` [Example 34, 2-(((1S,4S)-2-oxa-5-azabicyclo[2.2.1]heptan-5-yl)methyl)-7-(5-fluoro-2-(((3S,4R)-3-hydroxytetrahydro-2H-pyran-4-yl)amino)pyrimidin-4-yl)-1-isopropylquinolin-4(1H)-one], the pIC50 (CDK4/Cyclin D1) was 8.00 and the pIC50 (CDK6/Cyclin D3) was 6.37.

Work on `CC(C)n1c(CN)cc(=O)c2ccc(-c3nc(N[C@@H]4CCOC[C@H]4O)ncc3F)cc21` [Example 35] yielded a pIC50 (CDK4/Cyclin D1) of 8.16 and a pIC50 (CDK6/Cyclin D3) of 6.56.

Compound `CNC(=O)c1cc(=O)c2c(Cl)cc(-c3nc(N[C@@H]4CCOC[C@H]4O)ncc3F)cc2n1C(C)C` [Example 36, 5-chloro-7-(5-fluoro-2-(((3S,4R)-3-hydroxytetrahydro-2H-pyran-4-yl)amino)pyrimidin-4-yl)-1-isopropyl-N-methyl-4-oxo-1,4-dihydroquinoline-2-carboxamide] has a pIC50 (CDK4/Cyclin D1) of 7.24 and a pIC50 (CDK6/Cyclin D3) of 6.26.

Compound `CC(C)n1c(CN2CCC(C#N)CC2)cc(=O)c2ccc(-c3nc(N[C@@H]4CCOC[C@H]4O)ncc3F)cc21` [Example 37, 1-((7-(5-fluoro-2-(((3S,4R)-3-hydroxytetrahydro-2H-pyran-4-yl)amino)pyrimidin-4-yl)-1-isopropyl-4-oxo-1,4-dihydroquinolin-2-yl)methyl)piperidine-4-carbonitrile] has a pIC50 (CDK4/Cyclin D1) of 7.66 and a pIC50 (CDK6/Cyclin D3) of 6.17.

`CC(C)n1c(CN2CCC(C)(O)CC2)cc(=O)c2ccc(-c3nc(N[C@@H]4CCOC[C@H]4O)ncc3F)cc21` [Example 38, 7-(5-fluoro-2-(((3S,4R)-3-hydroxytetrahydro-2H-pyran-4-yl)amino)pyrimidin-4-yl)-2-((4-hydroxy-4-methylpiperidin-1-yl)methyl)-1-isopropylquinolin-4(1H)-one] showed a pIC50 (CDK4/Cyclin D1) of 7.62 and a pIC50 (CDK6/Cyclin D3) of 6.05.

In the case of `CC(C)n1c(CN2CCC(O)CC2)cc(=O)c2ccc(-c3nc(N[C@@H]4CCOC[C@H]4O)ncc3F)cc21` [Example 39, 7-(5-fluoro-2-(((3S,4R)-3-hydroxytetrahydro-2H-pyran-4-yl)amino)pyrimidin-4-yl)-2-((4-hydroxypiperidin-1-yl)methyl)-1-isopropylquinolin-4(1H)-one], the pIC50 (CDK4/Cyclin D1) was 7.62 and the pIC50 (CDK6/Cyclin D3) was 6.13.

`Cc1c(C2CC2)c(=O)c2ccc(-c3nc(N[C@@H]4CCOC[C@H]4O)ncc3F)cc2n1C(C)C` [Example 40, 3-cyclopropyl-7-(5-fluoro-2-(((3S,4R)-3-hydroxytetrahydro-2H-pyran-4-yl)amino)pyrimidin-4-yl)-1-isopropyl-2-methylquinolin-4(1H)-one] gave a pIC50 (CDK4/Cyclin D1) of 8.06 and a pIC50 (CDK6/Cyclin D3) of 6.83.

In the case of `CC(C)n1c(CN2C[C@H]3COC[C@H]3C2)cc(=O)c2ccc(-c3nc(N[C@@H]4CCOC[C@H]4O)ncc3F)cc21` [Example 41, 7-(5-fluoro-2-(((3S,4R)-3-hydroxytetrahydro-2H-pyran-4-yl)amino)pyrimidin-4-yl)-1-isopropyl-2-(((3aR,6aS)-tetrahydro-1H-furo[3,4-c]pyrrol-5(3H)-yl)methyl)quinolin-4(1H)-one], the pIC50 (CDK4/Cyclin D1) was 7.62 and the pIC50 (CDK6/Cyclin D3) was 5.89.

`CC(C)n1c(CN2CCC(C)(C)C2)cc(=O)c2ccc(-c3nc(N[C@@H]4CCOC[C@H]4O)ncc3F)cc21` [Example 42, 2-((3,3-dimethylpyrrolidin-1-yl)methyl)-7-(5-fluoro-2-(((3S,4R)-3-hydroxytetrahydro-2H-pyran-4-yl)amino)pyrimidin-4-yl)-1-isopropylquinolin-4(1H)-one] was tested, and the pIC50 (CDK4/Cyclin D1) was 7.82 and the pIC50 (CDK6/Cyclin D3) was 6.19.

With `CC(C)n1c(CN2CC3CC2C3)cc(=O)c2ccc(-c3nc(N[C@@H]4CCOC[C@H]4O)ncc3F)cc21` [Example 43, 2-((2-azabicyclo[2.1.1]hexan-2-yl)methyl)-7-(5-fluoro-2-(((3S,4R)-3-hydroxytetrahydro-2H-pyran-4-yl)amino)pyrimidin-4-yl)-1-isopropylquinolin-4(1H)-one] the pIC50 (CDK4/Cyclin D1) was 7.60 and the pIC50 (CDK6/Cyclin D3) was 5.89.

`CC(C)n1c(CN2CCC3(CCCO3)CC2)cc(=O)c2ccc(-c3nc(N[C@@H]4CCOC[C@H]4O)ncc3F)cc21` [Example 44, 2-((1-oxa-8-azaspiro[4.5]decan-8-yl)methyl)-7-(5-fluoro-2-(((3S,4R)-3-hydroxytetrahydro-2H-pyran-4-yl)amino)pyrimidin-4-yl)-1-isopropylquinolin-4(1H)-one] showed a pIC50 (CDK4/Cyclin D1) of 7.54 and a pIC50 (CDK6/Cyclin D3) of 5.89.
